{"source": "patent US20070092577A1", "about": "“Dietary calcium for reducing the production of reactive oxygen species” (University of Tennessee Research Foundation, priority 2005, published 2007)", "key": {"MCP-1": {"tested_on": "MCP-1", "experiment": "MCP-1 expression in 3T3-L1 adipocytes", "format": "cell-based, mouse", "settings": "calcitriol 10 nmol/L, 48 hours", "experimental": "(§1) RAW 264 macrophages and 3T3-L1 preadipocytes (American Type Culture Collection) were incubated at a density of 8000 cells/cm2 (10 cm2 dish) and grown in Dulbecco's modified Eagle's medium (DMEM) containing 10% FBS and antibiotics (adipocyte medium) at 37° C. in 5% CO2 in air. Confluent 3T3-L1 preadipocytes were induced to differentiate with a standard differentiation medium consisting of DMEM-F10 (1:1, vol/vol) medium supplemented with 1% FBS, 1 μM dexamethasone, IBMX (0.5 mM) and antibiotics (1% Penicillin-Streptomycin). Preadipocytes were maintained in this differentiation medium for 3 days and subsequently cultured in adipocyte medium. […]\n(§2) Cells were washed with fresh adipocyte medium, re-fed with medium containing the indicated treatments, and incubated at 37° C. in 5% CO2 for 48 hours before analysis. Cell viability was measured via trypan blue exclusion.\n(§3) Adipocyte and muscle 18s, CD14, TNFα, MIP, M-CSF, IL-6 and MCP-1 were quantitatively measured using a Smart Cycler Real Time PCR System (Cepheid, Sunnyvale, Calif.) with a TaqMan 1000 Core Reagent Kit (Applied Biosystems, Branchburg, N.J.). […] Reactions of quantitative RT-PCR for standards and unknown samples were also performed according to the instructions of Smart Cycler System (Cepheid, Sunnyvale, Calif.) and TaqMan Real Time PCR Core Kit (Applied Biosystems, Branchburg, N.J.). […]"}, "IL-15": {"tested_on": "IL-15", "experiment": "IL-15 expression in differentiated Zen-bio human adipocytes", "format": "cell-based", "settings": "10 nmol/L 1α, 25-(OH)2-D3 or 10 μmol/L nifedipine, 48 h; p=0.473", "experimental": "(§4) Human pre-adipocytes used in this study were supplied by Zen-Bio (Research Triangle, N.C.). […] The cells are isolated from the stromal vascular fraction of human subcutaneous adipose tissue and differentiated in vitro as follows: […] Preadipocytes were maintained in this differentiation medium for 3 days and subsequently cultured in adipocyte medium in which BRL49653 and MIX were omitted. Cultures were re-fed every 2-3 days till fully differentiated. Cells were incubated in serum free medium overnight before chemical treatment. Chemicals were freshly diluted in adipocyte medium before treatment. […] Cell viability was measured via trypan blue exclusion. Adipocyte and muscle 18s, TNFα, IL-6, IL-8, IL-15 and adiponectin were quantitatively measured using a smart cycler real-time PCR system (Cepheid, Sunnyvale, Calif.) with a TaqMan 1000 Core Reagent Kit (Applied Biosystems, Branchburg, N.J.). […] Reactions of quantitative RT-PCR for standards and unknown samples were also performed according to the instructions of Smart Cycler System (Cepheid, Sunnyvale, Calif.) and TaqMan Real Time PCR Core Kit (Applied Biosystems, Branchburg, N.J.). The mRNA quantitation for each sample was further normalized using the corresponding 18s quantitation."}, "IL-8": {"tested_on": "IL-8", "experiment": "IL-8 expression in differentiated Zen-bio human adipocytes", "format": "cell-based", "settings": "10 nmol/L, 48 h; p<0.001", "experimental": "as §4"}, "CD14 [1]": {"tested_on": "CD14", "experiment": "CD14 expression in mouse (3T3-L1) adipocytes", "format": "cell-based", "settings": "calcitriol 10 nmol/L, 48 hours", "experimental": "as §1, §2, §3"}, "M-CSF": {"tested_on": "M-CSF", "experiment": "M-CSF expression in 3T3-L1 adipocytes", "format": "cell-based, mouse", "settings": "calcitriol 10 nmol/L, 48 hours", "experimental": "as §1\nCell viability was measured via trypan blue exclusion.\nAdipocyte and muscle 18s, CD14, TNFα, MIP, M-CSF, IL-6 and MCP-1 were quantitatively measured using a Smart Cycler Real Time PCR System (Cepheid, Sunnyvale, Calif.) with a TaqMan 1000 Core Reagent Kit (Applied Biosystems, Branchburg, N.J.). […] Reactions of quantitative RT-PCR for standards and unknown samples were also performed according to the instructions of Smart Cycler System (Cepheid, Sunnyvale, Calif.) and TaqMan Real Time PCR Core Kit (Applied Biosystems, Branchburg, N.J.). The mRNA quantitation for each sample was further normalized using the corresponding 18s quantitation."}, "MIF": {"tested_on": "MIF", "experiment": "MIF expression in human adipocytes", "format": "cell-based", "settings": "calcitriol 10 nmol/L, 48 hours; p=0.001", "from_the_text": "(§5) Cell culture: Human preadipocytes used in this study were supplied by Zen-Bio (Research Triangle, N.C.). Preadipocytes were inoculated in DMEM/Ham's F-10 medium (DMEM-F10) (1:1, vol/vol) containing 10% FBS, 15 mmol/L HEPES, and antibiotics at a density of 30,000 cells/cm^2. Confluent monolayers of preadipocytes were induced to differentiate with a standard differentiation medium consisting of DMEM-F 10 (1:1, vol/vol) medium supplemented with 15 mmol/L HEPES, 3% FBS, 33 μmol/L biotin, 17 μmol/L pantothenate, 100 nmol/L insulin, […] methylisobutylxanthine, 1 μmol/L dexamethasone, 1 μmol/L BRL49653, and antibiotics. […]\nas §2, §3"}, "3T3-L1 adipocytes": {"tested_on": "3T3-L1 adipocytes", "experiment": "Mouse cytokine antibody array of culture medium", "format": "cell-based", "experimental": "RAW 264 macrophages and 3T3-L1 preadipocytes (American Type Culture Collection) were incubated at a density of 8000 cells/cm2 (10 cm2 dish) and grown in Dulbecco's modified Eagle's medium (DMEM) containing 10% FBS and antibiotics (adipocyte medium) at 37° C. in 5% CO2 in air. Confluent 3T3-L1 preadipocytes were induced to differentiate with a standard differentiation medium consisting of DMEM-F10 (1:1, vol/vol) medium supplemented with 1% FBS, 1 μM dexamethasone, IBMX (0.5 mM) and antibiotics (1% Penicillin-Streptomycin). Preadipocytes were maintained in this differentiation medium for 3 days and subsequently cultured in adipocyte medium. Cultures were re-fed every 2-3 days to allow 90% cells to reach fully differentiation for 3T3-L1 adipocytes or grow to a confluence for RAW 264 before conducting chemical treatment.\nHuman adipocytes (Zen-Bio, Inc.), 3T3-L1 adipocytes, RAW264 macrophages were obtained and co-cultured by using transwell inserts with 0.4 μm porous membranes (Corning) to separate adipocytes and macrophages. All data are expressed as mean±SEM. Data were evaluated for statistical significance by analysis of one-way or two-way variance (ANOVA; means with different letter differ, p<0.05).\nA TansSignal™ mouse cytokine antibody array kit (Panomics, Fremont, Calif.) was used to detect cytokine protein released in culture medium according to the manufacture's instruction. […]"}, "CD14 [2]": {"tested_on": "CD14", "experiment": "CD14 expression in human adipocytes", "format": "cell-based", "settings": "calcitriol 10 nmol/L, 48 hours; p=0.008", "from_the_text": "as §5, §2, §3"}, "adiponectin": {"tested_on": "adiponectin", "experiment": "Adiponectin expression in differentiated Zen-bio human adipocytes", "format": "cell-based", "settings": "10 nmol/L 1α, 25-(OH)2-D3 or 10 μmol/L nifedipine, 48 h; p=0.377", "experimental": "as §4"}}}
{"compound": "C=C1/C(=C\\C=C2/CCC[C@]3(C)[C@@H]([C@H](C)CCCC(C)(C)O)CC[C@@H]23)C[C@@H](O)C[C@@H]1O", "note": "[calcitriol, 1, 25-Dihydroxyvitamin D]", "values": [{"measurement": "effect on MCP-1 expression", "setting": "MCP-1", "value": "markedly stimulate"}, {"measurement": "effect on IL-15 expression", "setting": "IL-15", "value": "no effect"}, {"measurement": "stimulation of IL-8 expression", "setting": "IL-8", "value": 49, "unit": "%"}, {"measurement": "increase of CD14 expression", "setting": "CD14 [1]", "value": 45, "unit": "%"}, {"measurement": "effect on M-CSF expression", "setting": "M-CSF", "value": "markedly stimulate"}, {"measurement": "increase of MIF expression", "setting": "MIF", "value": 59, "unit": "%"}, {"measurement": "effect on inflammatory cytokine production", "setting": "3T3-L1 adipocytes; co-culture of 3T3-L1 adipocytes with RAW264 macrophages", "value": "further stimulated inflammatory cytokine production"}, {"measurement": "effect on release of inflammatory cytokine proteins", "setting": "3T3-L1 adipocytes; differentiated 3T3-L1 adipocytes cultured alone", "value": "up-regulated production of multiple inflammatory cytokine proteins"}, {"measurement": "increase of CD14 expression", "setting": "CD14 [2]", "value": 33, "unit": "%"}, {"measurement": "effect on adiponectin expression", "setting": "adiponectin", "value": "no effect"}]}
